{"source": "patent US20040234463A1", "about": "“Antimicrobial solution for both tropical and oral use” (Innovative Healthcare Products, Inc., priority 2002, published 2004)", "assay_in_all_cases": "Titration of zones of inhibition of growth", "format_in_all_cases": "cell-based", "design_in_all_cases": "key: NI: No inhibition detected", "key": {"Candida albicans": {"test_system": "Candida albicans", "description": "(§1) The present invention was tested against a commercially available denture cleanser and a 3% solution of H2O2 to test its effectiveness to inhibit growth of ten various target microorganisms commonly found in the human mouth. Included among the microorganisms were candida albicans, staphylococcus aureus, streptococcus sanguia, and fusobacterium nucleatum. Three samples of each microorganism were prepared for introduction of one of the various treatments—either, the present invention, a commercially-available denture cleanser, or a 3% solution of H2O2. The table blow partailly summarizes the results in terms of the titration of zones (in millimeters) of inhibition of growth."}, "Staphylococcus aureus": {"test_system": "Staphylococcus aureus", "description": "as §1"}, "Streptococcus sanguia": {"test_system": "Streptococcus sanguia", "description": "as §1"}, "Fusobacterium nucleatum": {"test_system": "Fusobacterium nucleatum", "description": "as §1"}}, "data": [{"smiles": "OO", "note": "[H2O2]", "values": [{"measurement": "zone of inhibition of growth", "setting": "Candida albicans; dilution 1/16", "value": "NI"}, {"measurement": "zone of inhibition of growth", "setting": "Candida albicans; dilution 1/32", "value": "NI"}, {"measurement": "zone of inhibition of growth", "setting": "Candida albicans; dilution 1/64", "value": "NI"}, {"measurement": "zone of inhibition of growth", "setting": "Candida albicans; dilution 1/128", "value": "NI"}, {"measurement": "zone of inhibition of growth", "setting": "Candida albicans; dilution St.", "value": 5.5, "unit": "millimeters"}, {"measurement": "zone of inhibition of growth", "setting": "Candida albicans; dilution ¼", "value": "NI"}, {"measurement": "zone of inhibition of growth", "setting": "Candida albicans; dilution ½", "value": 5.0, "unit": "millimeters"}, {"measurement": "zone of inhibition of growth", "setting": "Candida albicans; dilution ⅛", "value": "NI"}, {"measurement": "zone of inhibition of growth", "setting": "Staphylococcus aureus; dilution 1/16", "value": "NI"}, {"measurement": "zone of inhibition of growth", "setting": "Staphylococcus aureus; dilution 1/32", "value": "NI"}, {"measurement": "zone of inhibition of growth", "setting": "Staphylococcus aureus; dilution 1/64", "value": "NI"}, {"measurement": "zone of inhibition of growth", "setting": "Staphylococcus aureus; dilution 1/128", "value": "NI"}, {"measurement": "zone of inhibition of growth", "setting": "Staphylococcus aureus; dilution St.", "value": 10.0, "unit": "millimeters"}, {"measurement": "zone of inhibition of growth", "setting": "Staphylococcus aureus; dilution ¼", "value": "NI"}, {"measurement": "zone of inhibition of growth", "setting": "Staphylococcus aureus; dilution ½", "value": 5.0, "unit": "millimeters"}, {"measurement": "zone of inhibition of growth", "setting": "Staphylococcus aureus; dilution ⅛", "value": "NI"}, {"measurement": "zone of inhibition of growth", "setting": "Streptococcus sanguia; dilution 1/16", "value": "NI"}, {"measurement": "zone of inhibition of growth", "setting": "Streptococcus sanguia; dilution 1/32", "value": "NI"}, {"measurement": "zone of inhibition of growth", "setting": "Streptococcus sanguia; dilution 1/64", "value": "NI"}, {"measurement": "zone of inhibition of growth", "setting": "Streptococcus sanguia; dilution 1/128", "value": "NI"}, {"measurement": "zone of inhibition of growth", "setting": "Streptococcus sanguia; dilution St.", "value": 10.0, "unit": "millimeters"}, {"measurement": "zone of inhibition of growth", "setting": "Streptococcus sanguia; dilution ¼", "value": "NI"}, {"measurement": "zone of inhibition of growth", "setting": "Streptococcus sanguia; dilution ½", "value": 6.5, "unit": "millimeters"}, {"measurement": "zone of inhibition of growth", "setting": "Streptococcus sanguia; dilution ⅛", "value": "NI"}, {"measurement": "zone of inhibition of growth", "setting": "Fusobacterium nucleatum; dilution 1/16", "value": "NI"}, {"measurement": "zone of inhibition of growth", "setting": "Fusobacterium nucleatum; dilution 1/32", "value": "NI"}, {"measurement": "zone of inhibition of growth", "setting": "Fusobacterium nucleatum; dilution 1/64", "value": "NI"}, {"measurement": "zone of inhibition of growth", "setting": "Fusobacterium nucleatum; dilution 1/128", "value": "NI"}, {"measurement": "zone of inhibition of growth", "setting": "Fusobacterium nucleatum; dilution St.", "value": 17.0, "unit": "millimeters"}, {"measurement": "zone of inhibition of growth", "setting": "Fusobacterium nucleatum; dilution ¼", "value": 7.0, "unit": "millimeters"}, {"measurement": "zone of inhibition of growth", "setting": "Fusobacterium nucleatum; dilution ½", "value": 13.0, "unit": "millimeters"}, {"measurement": "zone of inhibition of growth", "setting": "Fusobacterium nucleatum; dilution ⅛", "value": 6.0, "unit": "millimeters"}]}]}
